Test results as given in US6737383B1, “Herbicidal oxadiazolidines” (priority 1999, dated 2004).

Key:
rice = experiment: Test B flood test rice; assay type: in vivo, Oryza sativa
How it was run: (§1)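 Flood test on plants grown to the 2-leaf stage; treated plants kept in greenhouse twelve to sixteen days, then visually rated against controls on a 0 (no effect) to 10 (complete control) scale.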

duck salad = experiment: Test B flood test duck salad; assay type: in vivo, Heteranthera limosa
How it was run: as §1

cocklebur = experiment: Test B pre/postemergence cocklebur; assay type: in vivo, Xanthium strumarium
How it was run: (§2)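 Test chemicals in a non-phytotoxic solvent mixture with surfactant were sprayed preemergence onto planted seeds and postemergence onto plants 2 to 18 cm tall (1- to 4-leaf stage). After twelve to sixteen days in a greenhouse, injury was visually rated against untreated controls from 0 (no effect) to 10 (complete control).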

purple nutsedge = experiment: Test B pre/postemergence purple nutsedge; assay type: in vivo, Cyperus rotundus
How it was run: as §2

corn = experiment: Test B pre/postemergence corn; assay type: in vivo, Zea mays
How it was run: as §2

smallflower flatsedge = experiment: Test B flood test smallflower flatsedge; assay type: in vivo, Cyperus difformis
How it was run: as §1

bamyardgrass = experiment: Test B flood test barnyardgrass; assay type: in vivo, Echinochloa crus-galli
How it was run: as §1

pigweed = experiment: Test B pre/postemergence pigweed; assay type: in vivo, Amaranthus retroflexus
How it was run: as §2

wheat = experiment: Test B pre/postemergence wheat; assay type: in vivo, Triticum aestivum; settings: for Plant response rating, Wheat: Rate 250 g/ha
How it was run: as §2

wild oat = experiment: Test B pre/postemergence wild oat; assay type: in vivo, Avena fatua; settings: for Plant response rating, Wild oats: Rate 250 g/ha
How it was run: as §2

rape = experiment: Test B pre/postemergence rape; assay type: in vivo, Brassica napus
How it was run: as §2

surinam grass = experiment: Test B pre/postemergence surinam grass; assay type: in vivo, Brachiaria decumbens
How it was run: as §2

velvetleaf = experiment: Test B pre/postemergence velvetleaf; assay type: in vivo, Abutilon theophrasti; settings: for Plant response rating, Velvetleaf: Rate 250 g/ha
How it was run: as §2

bedstraw = experiment: Test B pre/postemergence bedstraw; assay type: in vivo, Galium aparine
How it was run: as §2

morningglory = experiment: Test B pre/postemergence morningglory; assay type: in vivo, Ipomoea hederacea
How it was run: as §2

blackgrass = experiment: Test B pre/postemergence blackgrass; assay type: in vivo, Alopecurus myosuroides
How it was run: as §2

[1] = Postemergence (flood test species), Rate 125 g/ha, scale of 0 to 10 where 0 is no effect and 10 is complete control
[2] = Rate 62 g/ha, Postemergence section, flood test species, scale of 0 to 10 where 0 is no effect and 10 is complete control
[3] = Rate 250 g/ha, Postemergence (flood test), scale 0 to 10, 0 is no effect, 10 is complete control
[4] = Rate 500 g/ha, listed under Postemergence (flood test species), scale 0 to 10, 0 no effect, 10 complete control
[5] = flood test, listed under Postemergence, Rate 250 g/ha, scale 0 to 10, 0 no effect, 10 complete control
[6] = Postemergence, Rate 125 g/ha, scale of 0 to 10 where 0 is no effect and 10 is complete control
[7] = Postemergence, Rate 250 g/ha, scale 0 to 10, 0 no effect, 10 complete control
[8] = Preemergence, Rate 62 g/ha, scale 0 to 10 (0 no effect, 10 complete control)
[9] = Preemergence, Rate 125 g/ha, scale 0 to 10 (0 no effect, 10 complete control)
[10] = Preemergence, Rate 250 g/ha, scale of 0 to 10 where 0 is no effect and 10 is complete control
[11] = Preemergence, Rate 500 g/ha, scale 0 to 10 (0 no effect, 10 complete control)
[12] = Rate 62 g/ha, Postemergence, scale of 0 to 10 where 0 is no effect and 10 is complete control
[13] = Rate 500 g/ha, Postemergence, scale 0 to 10, 0 no effect, 10 complete control
[14] = Postemergence, Rate 62 g/ha, scale 0 to 10, 0 is no effect, 10 is complete control
[15] = Preemergence, Rate 125 g/ha, 0 is no effect, 10 is complete control
[16] = Preemergence, scale of 0 to 10 where 0 is no effect and 10 is complete control
[17] = Postemergence, scale 0 to 10, 0 is no effect, 10 is complete control
[18] = Rate 125 g/ha, Postemergence, scale 0 to 10, 0 no effect, 10 complete control

Compound: CC(C)N(C(=O)n1oc(=O)n(Cc2ccccc2)c1=O)c1ccc(Cl)cc1 [Compound 106]
- Rice plant response rating (rice; [1]): 0
- Rice plant response rating (rice; [2]): 0
- Plant response rating, Rice (rice; [3]): 0
- Rice plant response rating (rice; [4]): 0
- Ducksalad plant response rating (duck salad; [1]): 0
- Ducksalad plant response rating (duck salad; [2]): 0
- Ducksalad plant response rating (duck salad; [4]): 0
- Ducksalad plant response rating (duck salad; [5]): 0
- Cocklebur plant response rating (cocklebur; [6]): 2
- Cocklebur plant response rating (cocklebur; [7]): 2
- Cocklebur plant response rating (cocklebur; [8]): 0
- Plant response rating, Cocklebur (cocklebur; [9]): 0
- Plant response rating, Cocklebur (cocklebur; [10]): 0
- Cocklebur plant response rating (cocklebur; [11]): 0
- Cocklebur plant response rating (cocklebur; [12]): 0
- Cocklebur plant response rating (cocklebur; [13]): 4
- Nutsedge plant response rating (purple nutsedge; [6]): 0
- Nutsedge plant response rating (purple nutsedge; [7]): 0
- Nutsedge plant response rating (purple nutsedge; [8]): 0
- Plant response rating, Nutsedge (purple nutsedge; [9]): 0
- Plant response rating, Nutsedge (purple nutsedge; [10]): 0
- Nutsedge plant response rating (purple nutsedge; [11]): 0
- Nutsedge plant response rating (purple nutsedge; [12]): 0
- Nutsedge plant response rating (purple nutsedge; [13]): 0
- Corn plant response rating (corn; [6]): 0
- Corn plant response rating (corn; [7]): 0
- Corn plant response rating (corn; [8]): 0
- Plant response rating, Corn (corn; [9]): 0
- Plant response rating, Corn (corn; [10]): 0
- Corn plant response rating (corn; [11]): 0
- Corn plant response rating (corn; [12]): 0
- Corn plant response rating (corn; [13]): 0
- S. Flatsedge plant response rating (smallflower flatsedge; [1]): 0
- S. Flatsedge plant response rating (smallflower flatsedge; [2]): 0
- Plant response rating, S. Flatsedge (smallflower flatsedge; [3]): 0
- S. Flatsedge plant response rating (smallflower flatsedge; [4]): 0
- Barnyardgrass plant response rating (bamyardgrass; [14]): 0
- Barnyardgrass plant response rating (bamyardgrass; Rate 125 g/ha, Postemergence section (flood test species), scale 0 to 10, 0 no effect, 10 complete control): 0
- Barnyardgrass plant response rating (bamyardgrass; [4]): 0
- Barnyardgrass plant response rating (bamyardgrass; [5]): 0
- Redroot pigweed plant response rating (pigweed; [6]): 0
- Redroot pigweed plant response rating (pigweed; [8]): 0
- Plant response rating, Redroot pigweed (pigweed; [9]): 0
- Plant response rating, Redroot pigweed (pigweed; [10]): 0
- Redroot pigweed plant response rating (pigweed; [11]): 4
- Redroot pigweed plant response rating (pigweed; [12]): 0
- Plant response rating, Redroot pigweed (pigweed; Rate 250 g/ha, Postemergence, scale 0 to 10, 0 is no effect, 10 is complete control): 0
- Redroot pigweed plant response rating (pigweed; [13]): 6
- Wheat plant response rating (wheat; [6]): 0
- Wheat plant response rating (wheat; [8]): 0
- Wheat plant response rating (0 to 10 scale) (wheat; [15]): 0
- Plant response rating, Wheat (wheat; [16]): 0
- Wheat plant response rating (wheat; [11]): 0
- Wheat plant response rating (wheat; [12]): 0
- Plant response rating, Wheat (wheat; [17]): 0
- Wheat plant response rating (wheat; [13]): 0
- Wild oats plant response rating (wild oat; [6]): 0
- Wild oats plant response rating (wild oat; [8]): 0
- Wild oats plant response rating (0 to 10 scale) (wild oat; [15]): 0
- Plant response rating, Wild oats (wild oat; [16]): 0
- Wild oats plant response rating (wild oat; [11]): 0
- Wild oats plant response rating (wild oat; [12]): 0
- Plant response rating, Wild oats (wild oat; [17]): 0
- Wild oats plant response rating (wild oat; [13]): 0
- Rape plant response rating (rape; [6]): 0
- Rape plant response rating (rape; [7]): 0
- Rape plant response rating (rape; [8]): 0
- Plant response rating, Rape (rape; [9]): 0
- Plant response rating, Rape (rape; [10]): 0
- Rape plant response rating (rape; [11]): 2
- Rape plant response rating (rape; [12]): 0
- Rape plant response rating (rape; [13]): 0
- B. signalgrass plant response rating (surinam grass; [14]): 0
- B. signalgrass plant response rating (surinam grass; [7]): 0
- B. signalgrass plant response rating (surinam grass; [8]): 0
- Plant response rating, B. signalgrass (surinam grass; [9]): 0
- Plant response rating, B. signalgrass (surinam grass; [10]): 0
- B. signalgrass plant response rating (surinam grass; [11]): 2
- B. signalgrass plant response rating (surinam grass; [18]): 0
- B. signalgrass plant response rating (surinam grass; Rate 500 g/ha, Postemergence, scale of 0 to 10 where 0 is no effect and 10 is complete control): 0
- Velvetleaf plant response rating (velvetleaf; [6]): 0
- Velvetleaf plant response rating (velvetleaf; [8]): 0
- Velvetleaf plant response rating (0 to 10 scale) (velvetleaf; [15]): 0
- Plant response rating, Velvetleaf (velvetleaf; [16]): 0
- Velvetleaf plant response rating (velvetleaf; [11]): 0
- Velvetleaf plant response rating (velvetleaf; [12]): 0
- Plant response rating, Velvetleaf (velvetleaf; [17]): 2
- Velvetleaf plant response rating (velvetleaf; [13]): 2
- Bedstraw plant response rating (bedstraw; [14]): 0
- Bedstraw plant response rating (bedstraw; [7]): 3
- Bedstraw plant response rating (bedstraw; [8]): 0
- Plant response rating, Bedstraw (bedstraw; [9]): 0
- Plant response rating, Bedstraw (bedstraw; [10]): 3
- Bedstraw plant response rating (bedstraw; [11]): 4
- Bedstraw plant response rating (bedstraw; [18]): 0
- Bedstraw plant response rating (bedstraw; [13]): 7
- Morningglory plant response rating (morningglory; [6]): 7
- Morningglory plant response rating (morningglory; [7]): 8
- Morningglory plant response rating (morningglory; [8]): 0
- Plant response rating, Morningglory (morningglory; [9]): 0
- Plant response rating, Morningglory (morningglory; [10]): 0
- Morningglory plant response rating (morningglory; [11]): 0
- Morningglory plant response rating (morningglory; [12]): 6
- Morningglory plant response rating (morningglory; [13]): 10
- Blackgrass plant response rating (blackgrass; [6]): 0
- Blackgrass plant response rating (blackgrass; [7]): 1
- Blackgrass plant response rating (blackgrass; [8]): 0
- Plant response rating, Blackgrass (blackgrass; [9]): 0
- Plant response rating, Blackgrass (blackgrass; [10]): 0
- Blackgrass plant response rating (blackgrass; [11]): 2
- Blackgrass plant response rating (blackgrass; [12]): 0
- Blackgrass plant response rating (blackgrass; [13]): 3
